Assay results from patent US20100022415A1, “ACTIVE CARRIER, ITS PRODUCTION AND ITS USE” (AVICOR KET., priority 2006, published 2010).

Tested on: streptavidin
Assay: Affinity chromatography: elution of labeled streptavidin from biotinylated glass beads
Type: binding
Settings: washing with solutions of increasing concentrations; absorbance of eluate (FIG. 5)
Protocol: The biotinylated glass beads were added to 1 ml PBS, to which 50 μg of streptavidin labeled with Cy5 fluorescent dye was added (total dye: 0.3 OD640/ml). The resulting solution was stirred, then OD640 was measured again, the detected value was 0.003. […] Two chromatographic analyses were performed to verify the specific binding. During the first, 100 mg of the biotinylated glass beads was washed with biotin solutions with increasing concentrations, and in the second, the column containing biotinylated glass beads was washed with benzamidine solutions of increasing concentrations. The absorbance of the eluate was measured continuously (FIG. 5).

O=C(O)CCCC[C@@H]1SC[C@@H]2NC(=O)N[C@@H]21 [biotin]
Elution of fluorescent labeled streptavidin from biotinylated glass beads: could be eluted only with the biotin solution
